From article PMC6944674, “Comparison of the Hepatotoxic Potential of Two Treatments for Autosomal-Dominant Polycystic Kidney DiseaseUsing Quantitative Systems Toxicology Modeling” (Pharmaceutical Research, 2020)
Where “and” joins values, the source holds several entries; their conditions need not be identical. Identical values can stand only once. Like-named read-outs stand apart in the source and are kept apart here.

Tests used:
[1] = molecular target: T1, human BSEP (Homo sapiens, UniProt O95342); design: method as in earlier work; conditions: ref (7); read-out: BSEP Ki used in DILIsym simulations previously; cited from earlier work
T1 construct: host or cells: HEK-293 cell membrane vesicles

[2] = molecular target: T1, human BSEP; assay: BSEP vesicular transport inhibition assay (taurocholate, HEK-293 cell membrane vesicles); type: biochemical
Protocol: (§1) The functional impact of lixivaptan, its three metabolites and tolvaptan on the human ABC (efflux) transporters BSEP and MRP3 and MRP4 was assessed for this project using in vitro vesicular transport inhibition assays. The inhibition of the human SLC (uptake) transporter NTCP was assessed using CHO cells stably expressing human NTCP. The concentration ranges used for the five test articles was determined based on the solubility of each compound in the assay solution. All transporter inhibition assays were conducted in triplicate by Solvo Biotechnology (Szeged, Hungary).
For the simulation of bile acid transporter inhibition by lixivaptan in DILIsym, parameter values were selected for BSEP canalicular transport, basolateral transport (encompassing both MRP3 and MRP4), and NTCP transport. The parameter values for each include the inhibition constant, defined as the IC50 or Ki value, and the inhibition type, defined as competitive, non-competitive, or mixed inhibition.
In vesicular transport inhibition assays, lixivaptan and its metabolites each inhibited BSEP-mediated probe substrate accumulation (Figure B1) and MRP4-mediated probe substrate accumulation (Figure B2) dose-dependently.
Figure B1. […] See Appendix A for more details.

[3] = tested on: HepG2 cells; assay: Intracellular concentration by LC/MS/MS in HepG2 cultures parallel to Seahorse assay; type: in vitro ADME; conditions: Seahorse medium; for CIntracellular Fraction: cell lysate; for CHepatocyte: corrected for lysate and HepG2 cell volume
Protocol: (§2) The concentration of test compound at the site of action (i.e. hepatocytes) has been identified as highly influential in the selection of parameter values (7). To assess intracellular concentrations of the five test articles, identical HepG2 cultures were established in parallel and cell lysate concentrations of the test articles were measured by LC/MS/MS analysis. Intracellular concentrations of the test articles were calculated by correcting for cell lysate volume (100 µL) and the volume of HepG2 cells in each well, which was calculated by multiplying cell count per well by cellular volume per cell (2.85 pl/cell). One independent study in duplicate was conducted to assess intracellular concentrations of the test articles for Seahorse studies.

[4] = as above; type: in vitro ADME; conditions: human, HepG2 cells, Seahorse medium
Protocol: as §2

[5] = tested on: HepG2 cells; assay: Seahorse XFe96 cellular respiration assay (oxygen consumption rate); type: cell-based; conditions: 24 hour incubation
Protocol: To assess the potential effect of the five test articles on mitochondrial function, cellular respiration assays using a Seahorse XFe96 Flux Analyzer were conducted by Cyprotex (Macclesfield, UK) and overseen by the authors. HepG2 cells were incubated with each test article for 1 or 24 hours and tested for an effect on cellular respiration by measuring the oxygen consumption rate (OCR). Each study was conducted in triplicate. Importantly, the 1 hour culture was conducted in the absence of serum (i.e. no serum protein binding) as is standard for the Seahorse Analyzer assay conditions.

[6] = tested on: mitochondrial electron transport chain; conditions: intracellular concentrations not measured; cited from earlier work
[7] = tested on: mitochondrial electron transport chain; assay: ETC inhibition parameter from MITOsym simulation of OCR data, translated to DILIsym; conditions: calculated from 24 h HepG2 OCR data and measured intracellular concentrations; lower = higher risk
Source text: The parameters calculated in this manner were then translated to DILIsym parameters using a conversion factor based on the relative activity of rotenone in the in vitro vs. in vivo environment (7).

[8] = 90/30 mg, cited from earlier work
[9] = molecular target: T2, human MRP3 (Homo sapiens, UniProt O15438); assay: MRP3 vesicular transport inhibition assay (E217βG, HEK-293 cell membrane vesicles); type: biochemical
T2 construct: host or cells: HEK-293 cell membrane vesicles
Protocol: as §1
Figure B3. […] See Appendix A for more details.

[10] = tested on: simulated individuals; design: method as in PMID 27655350; conditions: 24 weeks, cited from earlier work; for Simulated ALT >3X ULN, frequency: 90/30 mg split daily dosing
[11] = molecular target: T3, human NTCP (Homo sapiens, UniProt Q14973); assay: NTCP inhibition in CHO cells stably expressing human NTCP (taurocholate); type: cell-based; conditions: CHO cells
T3 sequence (Q14973 1-349): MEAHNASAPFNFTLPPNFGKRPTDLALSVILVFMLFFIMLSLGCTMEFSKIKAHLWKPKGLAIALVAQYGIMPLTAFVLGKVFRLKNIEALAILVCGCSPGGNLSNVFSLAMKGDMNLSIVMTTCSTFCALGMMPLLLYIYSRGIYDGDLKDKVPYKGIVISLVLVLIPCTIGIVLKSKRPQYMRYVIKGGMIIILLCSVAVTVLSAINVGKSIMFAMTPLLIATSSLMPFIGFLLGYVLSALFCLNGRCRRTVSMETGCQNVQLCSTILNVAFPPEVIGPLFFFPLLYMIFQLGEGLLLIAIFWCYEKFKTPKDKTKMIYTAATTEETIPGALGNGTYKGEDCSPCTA
Protocol: as §1
Figure B4. […] See Appendix A for more details.

T1 sequence (O95342 whole entry): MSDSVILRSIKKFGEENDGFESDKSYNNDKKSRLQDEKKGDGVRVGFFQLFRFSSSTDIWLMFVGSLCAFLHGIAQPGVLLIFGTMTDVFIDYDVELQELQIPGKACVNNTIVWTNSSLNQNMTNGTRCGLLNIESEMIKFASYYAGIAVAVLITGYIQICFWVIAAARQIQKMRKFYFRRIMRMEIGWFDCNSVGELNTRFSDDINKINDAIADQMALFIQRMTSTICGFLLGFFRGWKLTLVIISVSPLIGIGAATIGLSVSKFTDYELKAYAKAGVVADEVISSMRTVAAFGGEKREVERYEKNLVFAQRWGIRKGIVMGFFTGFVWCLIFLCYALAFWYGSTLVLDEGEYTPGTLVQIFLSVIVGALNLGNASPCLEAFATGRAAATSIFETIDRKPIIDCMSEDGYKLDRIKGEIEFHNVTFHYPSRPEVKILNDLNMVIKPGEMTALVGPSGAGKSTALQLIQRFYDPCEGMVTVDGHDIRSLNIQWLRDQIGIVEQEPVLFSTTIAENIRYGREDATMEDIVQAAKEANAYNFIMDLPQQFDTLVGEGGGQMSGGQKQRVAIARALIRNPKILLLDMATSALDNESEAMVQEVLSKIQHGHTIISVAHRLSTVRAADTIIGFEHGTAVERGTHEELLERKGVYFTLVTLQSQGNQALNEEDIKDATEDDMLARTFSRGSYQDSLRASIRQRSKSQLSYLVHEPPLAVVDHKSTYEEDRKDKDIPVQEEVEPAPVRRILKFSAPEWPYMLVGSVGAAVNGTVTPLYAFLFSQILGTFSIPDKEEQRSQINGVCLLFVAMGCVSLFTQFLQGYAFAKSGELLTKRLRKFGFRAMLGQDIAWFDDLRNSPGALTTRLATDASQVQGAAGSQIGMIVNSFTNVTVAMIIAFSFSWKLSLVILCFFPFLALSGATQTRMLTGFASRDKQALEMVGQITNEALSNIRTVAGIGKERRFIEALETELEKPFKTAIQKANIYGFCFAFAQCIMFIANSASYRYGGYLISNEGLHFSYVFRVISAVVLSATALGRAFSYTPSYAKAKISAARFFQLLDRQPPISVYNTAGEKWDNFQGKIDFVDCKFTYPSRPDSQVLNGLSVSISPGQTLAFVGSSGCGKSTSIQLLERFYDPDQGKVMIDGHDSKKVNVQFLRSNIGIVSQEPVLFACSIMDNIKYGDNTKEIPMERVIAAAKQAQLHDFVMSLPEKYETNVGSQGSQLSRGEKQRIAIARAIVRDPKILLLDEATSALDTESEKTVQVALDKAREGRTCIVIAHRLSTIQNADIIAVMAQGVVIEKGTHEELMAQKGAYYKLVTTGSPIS
T2 sequence (O15438 whole entry): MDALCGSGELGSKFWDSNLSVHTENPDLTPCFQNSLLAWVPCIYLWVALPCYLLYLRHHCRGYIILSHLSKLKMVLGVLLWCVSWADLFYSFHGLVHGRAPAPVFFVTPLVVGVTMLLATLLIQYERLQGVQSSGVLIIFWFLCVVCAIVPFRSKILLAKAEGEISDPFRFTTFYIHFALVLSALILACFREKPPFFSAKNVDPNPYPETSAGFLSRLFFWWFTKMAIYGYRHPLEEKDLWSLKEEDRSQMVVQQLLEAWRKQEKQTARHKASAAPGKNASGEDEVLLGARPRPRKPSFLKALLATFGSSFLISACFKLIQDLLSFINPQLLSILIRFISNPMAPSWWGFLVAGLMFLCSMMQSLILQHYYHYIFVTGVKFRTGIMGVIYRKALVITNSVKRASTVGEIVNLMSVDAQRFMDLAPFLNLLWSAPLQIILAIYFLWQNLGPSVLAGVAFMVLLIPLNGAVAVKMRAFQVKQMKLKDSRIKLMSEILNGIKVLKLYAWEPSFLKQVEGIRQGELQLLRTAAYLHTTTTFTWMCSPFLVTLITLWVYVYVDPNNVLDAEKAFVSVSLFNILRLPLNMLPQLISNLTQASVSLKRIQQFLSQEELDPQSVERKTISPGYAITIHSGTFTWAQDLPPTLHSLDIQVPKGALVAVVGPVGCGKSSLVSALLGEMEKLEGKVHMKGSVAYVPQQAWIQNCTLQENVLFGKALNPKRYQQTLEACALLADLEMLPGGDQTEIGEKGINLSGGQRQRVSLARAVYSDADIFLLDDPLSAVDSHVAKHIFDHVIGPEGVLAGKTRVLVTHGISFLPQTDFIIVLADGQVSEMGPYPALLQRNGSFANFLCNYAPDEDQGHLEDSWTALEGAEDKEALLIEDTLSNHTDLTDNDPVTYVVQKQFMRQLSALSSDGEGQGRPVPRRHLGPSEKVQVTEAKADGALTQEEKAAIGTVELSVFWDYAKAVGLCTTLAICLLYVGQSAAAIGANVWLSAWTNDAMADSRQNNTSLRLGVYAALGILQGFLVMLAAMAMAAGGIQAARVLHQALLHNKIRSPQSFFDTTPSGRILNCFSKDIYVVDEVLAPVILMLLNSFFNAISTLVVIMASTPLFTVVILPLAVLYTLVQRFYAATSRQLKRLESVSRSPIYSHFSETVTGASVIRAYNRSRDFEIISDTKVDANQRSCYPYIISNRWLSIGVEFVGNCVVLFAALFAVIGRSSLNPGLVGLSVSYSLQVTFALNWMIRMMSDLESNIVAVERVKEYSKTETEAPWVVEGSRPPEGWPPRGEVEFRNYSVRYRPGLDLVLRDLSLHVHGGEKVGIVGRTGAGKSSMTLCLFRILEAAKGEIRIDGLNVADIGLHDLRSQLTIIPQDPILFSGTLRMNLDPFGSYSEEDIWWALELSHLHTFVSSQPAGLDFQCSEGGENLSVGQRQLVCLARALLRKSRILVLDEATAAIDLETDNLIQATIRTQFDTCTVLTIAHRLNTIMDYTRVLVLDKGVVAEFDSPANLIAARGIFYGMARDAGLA

**Q.** Which results are given for `Cc1ccccc1C(=O)Nc1ccc(C(=O)N2CCCC(O)c3cc(Cl)ccc32)c(C)c1` (centres unmarked) [Tolvaptan, tolvaptan, reference compound]?
**A.** Ki [1]: 31.6 µM; IC50 ([2]; read-out: BSEP inhibition constant (IC50)): 16.5 µM; inhibition of BSEP-mediated probe substrate accumulation ([2]; vesicular transport inhibition assay): inhibited; CIntracellular Fraction ([3]; dose 0.1 µM): 0 µM; CHepatocyte ([3]; dose 0.1 µM): 0 µM; CIntracellular Fraction ([3]; dose 0.5 µM): 0 µM; CHepatocyte ([3]; dose 0.5 µM): 0 µM; CIntracellular Fraction ([3]; dose 1 µM): 0 µM; CHepatocyte ([3]; dose 1 µM): 0 µM; CIntracellular Fraction ([3]; dose 5 µM): 0.0156 µM; CHepatocyte ([3]; dose 5 µM): 32.20 µM; CIntracellular Fraction ([3]; dose 10 µM): 0.0162 µM; CHepatocyte ([3]; dose 10 µM): 34.40 µM; CIntracellular Fraction ([3]; dose 25 µM): 0.0629 µM; CHepatocyte ([3]; dose 25 µM): 149.2 µM; CIntracellular Fraction ([3]; dose 40 µM): 0.0937 µM; CHepatocyte ([3]; dose 40 µM): 227.9 µM; Kp at 5 µM ([4]; dose 5 µM): 6.44; Kp at 10 µM ([4]; dose 10 µM): 3.44; Kp at 25 µM ([4]; dose 25 µM): 5.97; Kp at 40 µM ([4]; dose 40 µM): 5.7; effect on HepG2 oxygen consumption rate (mitochondrial respiration) [5]: reduce the HepG2 OCR in a dose-dependent manner; Coefficient for ETC inhibition (DILIsym parameter) used in previously published research [6]: 1.09 mM; Coefficient for ETC inhibition (DILIsym parameter) [7]: 729 µM; Clinical Hy's Law Cases ([8]; ADPKD): Yes; Clinical ALT >3X ULN, frequency ([8]; treated ADPKD patients): 4.4% and 5.6%; inhibition of MRP3-mediated probe substrate accumulation [9]: inhibited; Simulated ALT >3X ULN, frequency [10]: 7.86%; Simulated ALT >3X ULN, frequency ([10]; listed as tolvaptan): 7.86%; Simulated ALT >3X ULN ([10]; 90/30 mg): 18/229; Simulated Hy's Law Cases ([10]; 90/30 mg): Yes; inhibition of NTCP-mediated probe substrate accumulation [11]: inhibited
